Source: patent US20250129088A1, “CEREBLON E3 UBIQUITIN LIGASE INHIBITOR” (Gan & Lee Pharmaceuticals Co., Ltd., priority 2022, published 2025)

Columns and labels:
Format in all cases: cell-based
HeLa cells = assay: HeLa cell proliferation inhibition, CCK-8; details: Homo sapiens, 72 h, 3 days
Method: The complete medium required for HeLa cells is DMEM high glucose (Gibco, Product number: 11995-065) basal medium containing 10% fetal bovine serum. HeLa cells were seeded in a 96-well plate at a density of 4,000 cells/well, and the next day, different concentrations of the compound of the present invention and the positive control sample Ceritinib (source: Bide Pharmaceuticals) were prepared to treat the cells. The cells were incubated at 37° C., 5% CO2 cell culture incubator for 3 days. Cell viability was detected using the CCK-8 kit (Beyotime, Product number: C0040) according to the manufacturer's instructions. According to the inhibition rate, GraphPad Prism software was used to calculate the IC50 value of each compound for 3 days, and the results are shown in Table 2.

A549 cells = assay: A549 cell proliferation inhibition, CCK-8; details: Homo sapiens, 96 h, A549, 4 days
Method: The complete medium required for A549 cells is F-12K (ATCC, Product number: 30-2004) basal medium containing 10% fetal bovine serum. A549 cells were seeded in a 96-well plate at a density of 2,800 cells/well, and the next day, different concentrations of the compound of the present invention and a positive control sample Ceritinib (source: Bide Pharmaceuticals) were prepared to treat the cells. The cells were incubated at 37° C., 5% CO2 cell incubator for 4 days. Cell viability was detected using the CCK-8 kit (Beyotime, Product number: C0040) according to the manufacturer's instructions. According to the inhibition rate, the GraphPad Prism software was used to calculate the IC50 value of each compound for 4 days, and the results are shown in Table 3.

MOLM-13 cells = assay: MOLM-13 cell proliferation inhibition, CCK-8; details: Homo sapiens, 96 h, MOLM-13, 4 days, Table 9
Method: The complete medium required for MOLM-13 cells is 1640 (ATCC, Product number: 30-2001) basal medium containing 20% fetal bovine serum. MOLM-13 cells were seeded in a 96-well plate at a density of 7,500 cells/well, and different concentrations of the compounds of the present invention were prepared to treat the cells at the same time. The cells were incubated in a 37° C., 5% CO2 cell culture incubator for 4 days. Cell viability was detected using the CCK-8 kit (Beyotime, Product number: C0040) according to the manufacturer's instructions. According to the inhibition rate, GraphPad Prism software was used to calculate the IC50 value of each compound for 4 days, and the results are shown in Table 9-10.

K562 cells = assay: K562 cell proliferation inhibition, CCK-8; details: Homo sapiens, 96 h, K562, 4 days, Table 12, positive control dBET6
Method: The complete medium required for K562 cells is IMDM (ATCC, Product number: 30-2005) basal medium containing 10% fetal bovine serum. K562 cells were seeded in a 96-well plate at a density of 7,500 cells/well, and different concentrations of the compound of the present invention and positive control samples Alisertib (source: Bide Pharmaceuticals) and dBET6 (source: Bide Pharmaceuticals) were prepared to treat the cells. The cells were incubated at a 37° C., 5% CO2 cell culture incubator for 4 days.
Cell viability was detected using the CCK-8 kit (Beyotime, Product number: C0040) according to the manufacturer's instructions. According to the inhibition rate, GraphPad Prism software was used to calculate the IC50 value of each compound for 4 days, and the results are shown in Table 11-12.

T-47D cells = assay: T-47D cell proliferation inhibition, CCK-8; details: Homo sapiens, T47D, 144 h, 6 days
Method: The complete medium required for T-47D cells is 1640 (ATCC, Product number: A10491-01) basal medium containing 10% fetal bovine serum. T-47D cells were seeded in a 96-well plate at a density of 3,000/well, and different concentrations of the compound of the present invention and the positive control sample ARV-471 (source: Innochem) were prepared to treat the cells. The cells were incubated at 37° C., 5% for 6 days in a CO2 cell incubator. Cell viability was detected using the CCK-8 kit (Beyotime, Product number: C0040) according to the manufacturer's instructions. According to the inhibition rate, the GraphPadPrism software was used to calculate the IC50 value of each compound for 6 days, and the results are shown in Table 17.

MCF-7 cells = assay: MCF-7 cell proliferation inhibition, CCK-8; details: Homo sapiens, MCF7, 216 h, MCF-7, 9 days
Method: The complete medium required for MCF-7 cells is DMEM (gibco, Product number: 11995-065) basal medium containing 10% fetal bovine serum. MCF-7 cells were seeded in a 96-well plate at a density of 800/well, and different concentrations of the compound of the present invention and the positive control sample ARV-471 (source: Enochem) were prepared to treat the cells. The cells were incubated at 37° C., 5% 9 days in a CO2 cell incubator. Cell viability was detected using the CCK-8 kit (Beyotime, Product number: C0040) according to the manufacturer's instructions. According to the inhibition rate, GraphPadPrism software was used to calculate the IC50 value of each compound for 9 days, and the results are shown in Table 18.

Structure (SMILES) | IC50 (HeLa cells) | IC50 (A549 cells) | also measured
Cc1cc(Nc2ncc(Cl)c(Nc3ccccc3S(=O)(=O)C(C)C)n2)c(OC(C)C)cc1C1CCNCC1 [Ceritinib, reference compound] | 5.99 µM | 4.31 µM | –
Cc1nc(Nc2ncc(C(=O)Nc3c(C)cccc3Cl)s2)cc(N2CCN(CCOCCC(=O)N3CCC4(CC3)COc3cc5c(cc34)C(=O)N(C3CCC(=O)NC3=O)C5=O)CC2)n1 (stereo not drawn) [PROTAC 12, N-(2-chloro-6-methylphenyl)-2-((6-(4-(2-(3-(6-(2,6-dioxopiperidin-3-yl)-5,7-dioxo-6,7-dihydro-2H,5H-spiro[furo[2,3-f]isoindole-3,4′-piperidin]-1′-yl)-3-oxopropoxy)ethyl)piperazin-1-yl)-2-methylpyrimidin-4-yl)amino)thiazole-5-carboxamide] | – | – | IC50 (MOLM-13 cells): 4.77 µM; IC50 (K562 cells): 0.04 µM
Cc1cc(Nc2ncc(Cl)c(Nc3ccccc3S(=O)(=O)C(C)C)n2)c(OC(C)C)cc1C1CCN(CCOCCC(=O)N2CCC3(CCc4cc5c(cc4O3)C(=O)N(C3CCC(=O)NC3=O)C5)CC2)CC1 (stereo not drawn) [PROTAC 26, 3-(1-(3-(2-(4-(4-((5-chloro-4-((2-(isopropylsulfonyl)phenyl)amino)pyrimidin-2-yl)amino)-5-isopropoxy-2-methylphenyl)piperidin-1-yl)ethoxy)propionyl)-8′-oxo-3′,4′,6′,8′-tetrahydro-7′H-spiro[piperidine-4,2′-pyrano[2,3-f]isoindole]-7′-yl)piperidine-2,6-dione] | 4.33 µM | 4.27 µM | –
Cc1cc(Nc2ncc(Cl)c(Nc3ccccc3S(=O)(=O)C(C)C)n2)c(OC(C)C)cc1C1CCN(CCOCCC(=O)N2CC3(CCc4cc5c(cc4O3)C(=O)N(C3CCC(=O)NC3=O)C5)C2)CC1 (stereo not drawn) [PROTAC 28, 3-(1-(3-(2-(4-(4-((5-chloro-4-((2-(isopropylsulfonyl)phenyl)amino)pyrimidin-2-yl)amino)-5-isopropoxy-2-methylphenyl)piperidin-1-yl)ethoxy)propionyl)-8′-oxo-3′,4′,6′,8′-tetrahydro-7′H-spiro[azetidine-3,2′-pyrano[2,3-f]isoindole]-7′-yl)piperidine-2,6-dione] | 4.36 µM | 6.81 µM | –
Cc1cc(Nc2ncc(Cl)c(Nc3ccccc3S(=O)(=O)C(C)C)n2)c(OC(C)C)cc1C1CCN(CCOCCC(=O)N2CCC3(CC2)COc2cc4c(cc2C3)C(=O)N(C2CCC(=O)NC2=O)C4=O)CC1 (stereo not drawn) [PROTAC 30, 1-(3-(2-(4-(4-((5-chloro-4-((2-(isopropylsulfonyl)phenyl)amino)pyrimidin-2-yl)amino)-5-isopropoxy-2-methylphenyl)piperidin-1-yl)ethoxy)propionyl)-7′-(2,6-dioxopiperidin-3-yl)-2′H-spiro[piperidine-4,3′-pyrano[2,3-f]isoindole]-6′,8′(4′H,7′H)-dione] | 3.09 µM | 4.38 µM | –
Cc1cc(Nc2ncc(Cl)c(Nc3ccccc3S(=O)(=O)C(C)C)n2)c(OC(C)C)cc1C1CCN(CCOCCC(=O)N2CCC3(CC2)COc2cc4c(cc23)C(=O)N(C2CCC(=O)NC2=O)C4=O)CC1 (stereo not drawn) [PROTAC 31, 1′-(3-(2-(4-(4-((5-chloro-4-((2-(isopropylsulfonyl)phenyl)amino)pyrimidin-2-yl)amino)-5-isopropoxy-2-methylphenyl)piperidin-1-yl)ethoxy)propionyl)-6-(2,6-dioxopiperidin-3-yl)-6-hydrogen-2H,5H-spiro[furo[2,3-f]isoindole-3,4′-piperidine]-5,7-dione] | 4.65 µM | 10.2 µM | –
O=C1CCC(N2Cc3cc4c(cc3C2=O)CCC2(CN(C3CCC5(CC3)CCN(c3ccc([C@@H]6c7ccc(O)cc7CC[C@@H]6c6ccccc6)cc3)CC5)C2)O4)C(=O)N1 (stereo partly drawn) [PROTAC 52, 3-(1-(3-(4-((1R,2S)-6-hydroxy-2-phenyl-1,2,3,4-tetrahydronaphthalen-1-yl)phenyl)-3-azaspiro [5.5]undec-9-yl)-6′-oxo-3′,4′,6′,8′-tetrahydro-7′H-spiro[azetidine-3,2′-pyrano[2,3]isoindol]-7′-yl)piperidine-2,6-dione] | – | – | IC50 (T-47D cells): 0.0092 µM; IC50 (MCF-7 cells): 0.03 µM
O=C1CCC(N2Cc3cc4c(cc3C2=O)OC2(CC4)CN(C3CCC4(CC3)CN(c3ccc([C@@H]5c6ccc(O)cc6CC[C@@H]5c5ccccc5)cc3)C4)C2)C(=O)N1 (stereo partly drawn) [PROTAC 53, 3-(1-(2-(4-((1R,2S)-6-hydroxy-2-phenyl-1,2,3,4-tetrahydronaphthalen-1-yl)phenyl)-2-azaspiro [3.5]non-7-yl)-8′-oxo-3′,4′,6′,8′-tetrahydro-7′H-spiro[azetidine-3,2′-pyrano[2,3]isoindol]-7′-yl]piperidine-2,6-dione] | – | – | IC50 (T-47D cells): 0.0029 µM; IC50 (MCF-7 cells): 0.09 µM
O=C1CCC(N2C(=O)c3cc4c(cc3C2=O)C2(CCN(C3CCC5(CC3)CCN(c3ccc([C@@H]6c7ccc(O)cc7CC[C@@H]6c6ccccc6)cc3)CC5)CC2)CO4)C(=O)N1 (stereo partly drawn) [PROTAC 54, 6-(2,6-dioxopiperidin-3-yl)-1′-(3-(4-((1R,2S)-6-hydroxy-2-phenyl-1,2,3,4-tetralin-1-yl)phenyl)-3-azaspiro[5.5]undec-9-yl)-6-hydrogen-2H,5H-spiro[furo[2,3-f]isoindole-3,4′-piperidine]-5,7-dione] | – | – | IC50 (T-47D cells): 0.068 µM; IC50 (MCF-7 cells): 0.17 µM

Now from value to compound, other results behind:

IC50 (HeLa cells) | IC50 (A549 cells) | Structure (SMILES) | also measured
2.19 µM | 7.02 µM | Cc1cc(Nc2ncc(Cl)c(Nc3ccccc3S(=O)(=O)C(C)C)n2)c(OC(C)C)cc1C1CCN(CCOCCC(=O)N2CCC3(CCc4cc5c(cc4O3)CN(C3CCC(=O)NC3=O)C5=O)CC2)CC1 (stereo not drawn) [PROTAC 25] | –
4.27 µM | 11.4 µM | Cc1cc(Nc2ncc(Cl)c(Nc3ccccc3S(=O)(=O)C(C)C)n2)c(OC(C)C)cc1C1CCN(CCOCCC(=O)N2CC3(CCc4cc5c(cc4O3)CN(C3CCC(=O)NC3=O)C5=O)C2)CC1 (stereo not drawn) [PROTAC 27, 3-(1-(3-(2-(4-(4-((5-chloro-4-((2-(isopropylsulfonyl)phenyl)amino)pyrimidin-2-yl)amino)-5-isopropoxy-2-methylphenyl)piperidin-1-yl)ethoxy)propionyl)-6′-oxo-3′,4′,6′,8′-tetrahydro-7′H-spiro[azetidine-3,2′-pyrano[2,3-f]isoindole]-7′-yl)piperidine-2,6-dione] | –
5.41 µM | 4.34 µM | Cc1cc(Nc2ncc(Cl)c(Nc3ccccc3S(=O)(=O)C(C)C)n2)c(OC(C)C)cc1C1CCN(CCOCCC(=O)N2CCC3(CCc4cc5c(cc4O3)C(=O)N(C3CCC(=O)NC3=O)C5=O)CC2)CC1 (stereo not drawn) [PROTAC 29, 1-(3-(2-(4-(4-((5-chloro-4-((2-(isopropylsulfonyl)phenyl)amino)pyrimidin-2-yl)amino)-5-isopropoxy-2-methylphenyl)piperidin-1-yl)ethoxy)propionyl)-7′-(2,6-dioxopiperidin-3-yl)-3′,4′-dihydro-6′H-spiro[piperidine-4,2′-pyrano[2,3-f]isoindole]-6′,8′(7′H)-dione] | –
